BindingDB's records for doi:10.1016/S0960-894X(01)80767-8 (1993)

Biological target: L-type calcium channel (Cavia porcellus)
Assay: Displacement of [3H]diltiazem from L-type calcium channel of guinea pig striated muscle

Row | Ki [nM] | Compound
1 | 85 | COc1ccc([C@@H]2Sc3cc(OC)ccc3N(CCN(C)C)C(=O)[C@@H]2C)cc1 [(2R,3S)-5-(2-Dimethylamino-ethyl)-8-methoxy-2-(4-methoxy-phenyl)-3-methyl-2,3-dihydro-5H-benzo[b][1,4]thiazepin-4-one]
2 | 42 | COc1ccc([C@@H]2Sc3cc(OC)ccc3N(CCN(C)C)C(=O)[C@@H]2OC(C)=O)cc1 [Acetic acid (2S,3S)-5-(2-dimethylamino-ethyl)-8-methoxy-2-(4-methoxy-phenyl)-4-oxo-2,3,4,5-tetrahydro-benzo[b][1,4]thiazepin-3-yl ester]
3 | 540 | COc1ccc([C@@H]2Sc3ccccc3N(CCN(C)C)C(=O)[C@@H]2C)cc1 [(2R,3S)-5-(2-Dimethylamino-ethyl)-2-(4-methoxy-phenyl)-3-methyl-2,3-dihydro-5H-benzo[b][1,4]thiazepin-4-one]
